Test results: paper PMC2854131 (PLoS ONE, 2010)
Where two headings read alike, the source gives them in different places.

Key:
[1] = Balb/c, mouse, in vivo, ip, 2 mg/kg
[2] = mouse, in vivo
[3] = biological target: T1, recombinant BoNTAe (BoNTA endopeptidase) (Clostridium botulinum, UniProt P0DPI0); assay: biochemical; conditions: read-out: % BoNTAe inhibition
[4] = physchem; conditions: water
[5] = in vivo; conditions: Balb/c, mouse, ip, 2 mg/kg
[6] = biological target: BoNTA (Clostridium botulinum, UniProt P0DPI0); parameters: species or system Balb/c mice; conditions: mouse, in vivo
[7] = biological target: T1, recombinant BoNTAe (BoNTA endopeptidase); conditions: cited from earlier work

SMILES | C24 (concentration 24 hours after one dose) [1] [ng/mL] | acute toxicity to mice, in words [2] | inhibition at 20 µM [3] [%] | solubility [4] [mM] | AUC(0-t) [5] [ng·h/mL] | Cmax [5] [ng/mL] | half-life ([5]; T1/2) [h] | half-life ([5]; in vivo half-life (t1/2)) [h] | survival during the 12-hour period after the BoNTA challenge, in words [6] | treated mice that died 48 hours after the toxin challenge [6] [%] | Ki ([7]; read-out: Ki^app) [µM] | serotype specificity of BoNTAe inhibition, in words [7] | Ki ([7]; read-out: Ki app) [µM] | protection (survival) of mice 24 hours after the toxin challenge [6] [%] | protection (survival) of mice 48 hours after the toxin challenge [6] [%] | protection (survival) of mice during the 12-hour period after the toxin challenge [6] [%]
NCCCCn1c(-c2ccccc2)c(F)c2ccc(C(=O)c3cc(CC(=O)NO)c(-c4cccc(N)c4)s3)cc21 [Inhibitor F3A, 2-(5-(1-(4-Aminobutyl)-3-fluoro-2-phenyl-1H-indole-6-carbonyl)-2-(3-aminophenyl)thiophen-3-yl)-N-hydroxyacetamide] | 7.0 | no acute toxicity | 47 ± 1 | ≥ 5 | 1390 | 256 | 6.25 | ~6 | all mice treated with any of the three inhibitors survived | 90 | – | – | – | – | – | –
NCCCCn1c(-c2ccccc2)cc2ccc(C(=O)c3cc(CC(=O)NO)c(-c4ccccc4)s3)cc21 [APH, reference compound] | – | – | – | – | – | – | – | – | – | – | 7 | – | – | – | – | –
NCCCCn1c(-c2ccccc2)cc2ccc(C(=O)c3cc(CC(=O)NO)c(-c4cccc(O)c4)s3)cc21 [Inhibitor H3H] | 3.0 | no acute toxicity | 78 ± 4 | – | 1550 | 497 | 4.35 | ~4 | all mice treated with any of the three inhibitors survived | 40 | 4 | serotype-specific | 3.8 ± 0.77 | – | – | –
NCCCCn1c(-c2ccccc2)c(F)c2ccc(C(=O)c3cc(CC(=O)NO)c(-c4ccc(O)cc4)s3)cc21 [Inhibitor F4H, 2-(5-(1-(4-Aminobutyl)-3-fluoro-2-phenyl-1H-indole-6-carbonyl)-2-(4-hydroxyphenyl)thiophen-3-yl)-N-hydroxyacetamide] | <0.5 | no acute toxicity | 82 ± 6 | ≥ 5 | 1390 | 738 | 6.5 | ~6 | all mice treated with any of the three inhibitors survived | 40 | – | – | – | 70 | 60 | 100
